Reference: PMC9266914, “Broad Spectrum Functional Activity of Structurally Related Monoanionic Au(III) Bis(Dithiolene) Complexes” (International Journal of Molecular Sciences, 2022)
“And” between values parts separate entries of the source, which are not always exact repeats. Equal entries are not always repeated. Where two headings read alike, the source gives them in different places.

Columns and labels:
[1] = system: Huh7 cells; test: Cell viability (cell confluency, Alamar Blue) of P. berghei-infected Huh7 cells; type: cell-based; conditions: 5 µM, in words
Procedure: The in vitro liver stage activity of gold complexes was assessed against P. berghei-infected Huh7 cells, as previously described. Briefly, Huh7 cells were cultured in RPMI-1640 medium supplemented with 10% (v/v) fetal bovine serum, 1% (v/v) penicillin/streptomycin, 1% (v/v) glutamine, 1% (v/v) non-essential amino acids and 10 mM HEPES. On the day prior to infection, Huh7 cells were seeded in 96-well plates at a density of approximately 3.1 × 10^4 cell/cm^2 and incubated at 37 °C, 5% CO2. Stock solutions of the complexes were initially prepared in DMSO and serially diluted in infection medium, i.e., culture medium supplemented with gentamicin (50 µg/mL) and fungizone (0.8 µg/mL), to obtain the test concentrations. As a control, DMSO was diluted in infection medium to a percentage that equals that of the highest compound concentrations tested. These dilutions were added to the cells in triplicates and incubated for 1 h at 37 °C, 5% CO2, after which 1 × 10^4 luciferase-expressing P. berghei sporozoites were added to each well. Plates were centrifuged at 1800× g for 5 min at room temperature and incubated for the duration of the assay. At 46 h post-infection (hpi), the impact of each compound concentration on cell viability was assessed by the Alamar Blue (Invitrogen, Buckinghamshire, UK) assay, according to the manufacturer’s recommendations. Infection was next assessed by bioluminescence, employing the Firefly Luciferase Assay Kit 2.0 (Biotium, Fremont, CA, USA), according to the manufacturer’s recommendations. For IC50 determination, nonlinear regression analysis was employed to fit the normalized results of the dose–response curves, using GraphPad Prism 8 (GraphPad software, La Jolla, CA, USA).

[2] = system: A2780 ovarian cancer cells; test: MTT cytotoxicity assay in A2780 (cisplatin sensitive) ovarian cancer cells; type: cell-based, human
Procedure, shortened: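 Cells in RPMI-1640 with 10% FBS exposed to complexes at 0.01–100 μM for 24 and/or 48 h at 37 °C. Viability by colorimetric MTT; IC50 derived from dose–response curves.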

[3] = system: S. aureus Newman; test: MIC determination, S. aureus; type: cell-based, Staphylococcus aureus; conditions: MH broth, 22 h, 37 °C
Description: The bacterial strains Escherichia coli ATCC25922 and Staphylococcus aureus Newman were used in this work and maintained in Lennox Broth (LB) solid medium, composed of 10 g/L tryptone, 5 g/L yeast extract, 5 g/L NaCl and 20 g/L agar. The fungal strains Candida albicans SC5134 and C. glabrata CBS138 were used in this work and maintained in YPD solid medium, composed of 20 g/L glucose, 20 g/L peptone, 10 g/L yeast extract and 15 g/L agar. The strains were isolated from human infections.
The antimicrobial activity of the complexes towards the bacterial and fungal strains was assessed by the determination of the Minimal Inhibitory Concentration (MIC) of each complex towards the indicated microbial strains, based on standard methods, and as previously described. […] Serial 1:2 dilutions of stock solutions were prepared for each complex in Mueller–Hinton (MH) broth (Fluka Analytical) or RPMI-1640 medium (Sigma) supplemented with 20 g/L glucose and buffered with 0.165 M morpholinepropanesulphonic acid (RPMIG) to pH 7.0. Solutions prepared with MH were used for testing bacteria, while those prepared with RPMIG were used for testing fungi. For antibacterial activity assays, the final concentrations ranged from 250 to 0.24 μg/mL (when stock solution final concentration was 10 mg/mL), 125 μg/mL to 0.12 μg/mL (when stock solution final concentration was 5 mg/mL) and 62.5 to 0.06 μg/mL (when stock solution final concentration was 2.5 mg/mL). For antifungal assays, the final concentrations ranged from 125 μg/mL to 0.12 μg/mL (when stock solution final concentration was 10 mg/mL), 62.5 to 0.06 μg/mL (when stock solution final concentration was 5 mg/mL) and 31.25 to 0.03 μg/mL (when stock solution final concentration was 2.5 mg/mL). Then, 100 μL aliquots of adequately diluted bacterial suspensions of S. aureus Newman or E. coli ATCC 25922 were mixed with the MH serially diluted complexes aliquots to obtain 5 × 10^5 CFU/mL. In the case of fungi, cultures were diluted to obtain a final optical density of 0.025, measured at 530 nm (OD530). Bacterial suspensions were prepared from cultures grown for 5 h in MH broth at 37 °C and 250 rev·min^−1 and adequately diluted with fresh MH medium, while fungal suspensions were prepared from overnight cultures grown in YPD broth at 30 °C and 250 rev.min^−1 and diluted in buffered RPMIG. After 22 h of incubation at 37 °C (bacteria) or 24 h at 35 °C (fungi), the wells’ content was resuspended by pipetting and the OD640 (bacteria) or OD530 (fungi) were measured in a SPECTROstar Nano microplate reader (BMG Labtech).
At least three independent experiments were performed in duplicate for each complex under study. […] Positive (no complex) and negative controls (no inoculum) were performed for each experiment. The effect of 5% (V/V) DMSO on microbial growth was also assessed.

[4] = system: TZM-bl cells; test: alamarBlue cytotoxicity in TZM-bl cells; type: cell-based
Procedure: The in vitro cytotoxicity of auranofin, [P][AuSBu(=S)] and [P][AuSEt(=S)] was evaluated in TZM-bl cells using alamarBlue cell viability reagent (Life Technologies, Carlsbad, CA, USA). TZM-bl cells (AIDS Research and Reference Reagent Program, National Institutes of Health, Bethesda, MD, USA) were cultured in complete growth medium that consists of Dulbecco’s minimal essential medium (DMEM) supplemented with 10% fetal bovine serum (FBS), 100 U/ml of penicillin-streptomycin (Gibco/Invitrogen, Waltham, MA, USA), 1 mM of sodium pyruvate (Gibco/Invitrogen, Carlsbad, CA, USA), 2 mM of L-glutamine (Gibco/Invitrogen, USA) and 1 mM of non-essential amino acids (Gibco/Invitrogen, USA). Cells were cultured in the presence and absence of serial-fold dilutions of the compounds. At least two independent experiments were performed for each cytotoxicity analysis. Each dilution of each compound was performed in triplicate wells. For each assay we had medium controls (only growth medium), cell controls (cells without test compound) and cytotoxicity controls (a compound that kill cells). The cytotoxicity of each compound was expressed by the 50% cytotoxic concentration (CC50), which is the concentration of compound causing 50% decrease in cellular viability.

[5] = 24 h incubation, read-out: IC50 A2780, 24 h
[6] = 48 h incubation, read-out: IC50 A2780, 48 h

SMILES	toxicity seen as lower cell confluency [1]	IC50 [2, 5] [nM]	IC50 [2, 6] [nM]	MIC S. aureus Newman [3]	CC50 [4]	cytotoxicity in TZM-bl culture cells [4]	CC50 ([4]; TZM-bl cells, alamarBlue, read-out: CC50) [nM]
CCn1c2c(sc1=[Se])[S][Au-]1([S]c3sc(=[Se])n(CC)c3[S]1)[S]2.c1ccc([P+](c2ccccc2)(c2ccccc2)c2ccccc2)cc1 [[P][AuSEt(=Se)]]	some degree of toxicity	710 ± 120	220 ± 110	>125 µg/mL			
CC(C)n1c2c(sc1=S)[Se][Au-]1([Se]c3sc(=S)n(C(C)C)c3[Se]1)[Se]2.c1ccc([P+](c2ccccc2)(c2ccccc2)c2ccccc2)cc1 [[P][AuSeiPr(=S)]]		3740 ± 1220	680 ± 180	>62.5 µg/mL			
CCCCn1c2c(sc1=S)[S][Au-]1([S]c3sc(=S)n(CCCC)c3[S]1)[S]2.c1ccc([P+](c2ccccc2)(c2ccccc2)c2ccccc2)cc1 [[P][AuSBu(=S)]]		1380 ± 280	950 ± 50	>125 µg/mL	not possible to calculate	No significant cytotoxicity	
CCn1c2c(sc1=S)[S][Au-]1([S]c3sc(=S)n(CC)c3[S]1)[S]2.c1ccc([P+](c2ccccc2)(c2ccccc2)c2ccccc2)cc1 [[P][AuSEt(=S)]]	some degree of toxicity	580 ± 200	180	>125 µg/mL	4920 nM	No significant cytotoxicity	
CC(=O)OC[C@H]1O[C@@H]([S-])[C@H](OC(C)=O)[C@@H](OC(C)=O)[C@@H]1OC(C)=O.CCP(CC)CC.[Au+] [Auranofin, reference compound]		2010 ± 710		0.2 µg/mL and 0.173 ± 0.004 µg/mL			3210
